Assay results from US7425580B2, “(Diaryl-methyl)-malononitriles and their use as estrogen receptor ligands” (Wyeth, priority 2004, dated 2008).

Assays:
uterine wet weight = assay: Uterine wet weight increase in ovariectomized C57BL/6 mice; format: in vivo; conditions: EE 0.01 mg/kg/day, test compound 10 mg/kg/day, gavage, 5 weeks; for Uterine Wet Weight Increase, Fold Increase: compared to vehicle control
Procedure: Ovariectomized C57BL/6 mice (16-20 g) (Taconic) were separated into groups of 8. After 5-7 days of recuperation, the mice were fed a chow diet or an atherogenic diet (15.75% fat, 1.25% cholesterol and 0.5% sodium cholate) (Purina diet #21539). EE or test compound was administered once daily by gavage in a methylcellulose/tween vehicle (0.1 ml per mouse) for 5 weeks. At the end of the experimental period, the liver was collected and uterine wet weight was recorded. To determine the ability of estrogens to regulate the development of diet-induced inflammation in the liver, gene expression changes resulting from the atherogenic diet were monitored. Ovariectomized C57BL/6 mice were fed either a chow or atherogenic diet and treated daily with EE (0.01 mg/kg) or test compound (10 mg/kg) (Table 3).

creatine kinase = assay: Creatine kinase expression in Ad5-wt-ER infected HAECT-1 cells; format: cell-based, human; conditions: for IC50: Homo sapiens, HAECT1, stimulation of CK; for CK Efficacy: relative to maximal stimulation observed with E2
Procedure: (§1) T-175 flasks of 100% confluent HAECT-1 cells (immortalized human aortic endothelial cells) were washed with 8 ml of HBSS (HEPES buffered saline solution) and infected for four hours with 6 ml of a 1:10 dilution of Ad5-wt-hERα virus (an adenovirus transfection vector that mediates CMV promoter driven expression of human ERα) in phenol red free Endothelial Cell Basal medium (Clonetics, San Diego Calif., Catalog # CC-3129) containing 0.25% bovine serum albumin (EBM-BSA). After four hours, cells were washed with EBM-BSA and incubated overnight in the same medium. Following overnight incubation, cells were washed with EBM-BSA and infected for 2 hours with 6 ml of a 1:10 dilution of Ad5-3×(NFKκB).Luc virus (Adenovirus luciferase expression vector driven by 3 repeats of the MHC NFκβ site 5′ to the thymidine kinase promoter) in EBM-BSA. After two hours, cells were washed and incubated at 34° C. for 1 hour. Cells were then washed, trypsinized, counted and resuspended in 95% FBS/5% dimethylsulfoxide at a concentration of 4×10^6 cells/ml, frozen as 1 or 5 ml aliquots in cryo-vials and stored at −150° C. Control (no ER infection) cells were processed as above without Ad5-wt-hERα virus infection.
(§2) ERα infected HAECT-1 cells or control cells were thawed, diluted 42× in warm EBM-BSA, plated into 96-well plates at 0.1 ml/well and incubated for 4 h at 34° C. Test compounds were added to the cells as 2× stocks in EBM-BSA containing 2 ng/ml IL-1β (R&D Systems) and plates were returned to the incubator (34° C.). After 15-20 h, 100 μl aliquots of media were removed from the cells and assayed for IL-6 content using a BioSource human IL-6 ELISA Kit. Cells were subsequently washed with 300 μl of Dulbecco's phosphate buffered saline and lysed in 50 μl of Cell Culture Lysis Reagent (Promega). Luciferase was determined on a Wallac Victor^2 Luminometer (Gaithersburg, Md.) using 10 μl of lysate and mixing with 100 μl of Promega Luciferase Assay reagent. Creatine kinase was determined from the rate of increase in A340 following addition of 100 μl of CK assay reagent (Sigma, cat. No 47-10) to the remainder of the cell lysate.
(§3) For IC50 and EC50 calculations, mean IL-6, luciferase or CK values versus log10 of the compound concentration were fitted to a four parameter logistic equation. The IC50/EC50 value, ‘Hill slope’, upper and lower limits of the curve were iteratively estimated.

IL-6 = IL-6 expression (ELISA) in Ad5-wt-ER infected HAECT-1 cells (IL-1β stimulated); format: cell-based, human; conditions: for IL-6 Efficacy: relative to maximal inhibition observed with E2
Procedure: as §1, §2, §3

NF-κB [1] = assay: NF-κB luciferase reporter in Ad5-wt-ER infected HAECT-1 cells (IL-1β stimulated); format: cell-based, human; conditions: for Emax: relative to maximal inhibition observed with E2, read-out: NF-κB Efficacy
Procedure: as §1, §2, §3

NF-κB [2] = assay: NF-κB luciferase reporter in non ER infected HAECT-1 cells; format: cell-based, human
Procedure: T-175 flasks of 100% confluent HAECT-1 cells (immortalized human aortic endothelial cells) were washed with 8 ml of HBSS (HEPES buffered saline solution) and infected for four hours with 6 ml of a 1:10 dilution of Ad5-wt-hERα virus (an adenovirus transfection vector that mediates CMV promoter driven expression of human ERα) in phenol red free Endothelial Cell Basal medium (Clonetics, San Diego Calif., Catalog # CC-3129) containing 0.25% bovine serum albumin (EBM-BSA). After four hours, cells were washed with EBM-BSA and incubated overnight in the same medium. […] Cells were then washed, trypsinized, counted and resuspended in 95% FBS/5% dimethylsulfoxide at a concentration of 4×10^6 cells/ml, frozen as 1 or 5 ml aliquots in cryo-vials and stored at −150° C. […]
ERα infected HAECT-1 cells or control cells were thawed, diluted 42× in warm EBM-BSA, plated into 96-well plates at 0.1 ml/well and incubated for 4 h at 34° C. […] Luciferase was determined on a Wallac Victor^2 Luminometer (Gaithersburg, Md.) using 10 μl of lysate and mixing with 100 μl of Promega Luciferase Assay reagent. Creatine kinase was determined from the rate of increase in A340 following addition of 100 μl of CK assay reagent (Sigma, cat. No 47-10) to the remainder of the cell lysate. […]

[3] = system: NF-κB target genes (MHC invariant chain, VCAM-1, RANTES, TNF-α mRNA); assay: Liver inflammatory gene expression (real time RT-PCR) in ovariectomized C57BL/6 mice on atherogenic diet; format: in vivo; conditions: EE 0.01 mg/kg daily
Procedure: Ovariectomized C57BL/6 mice (16-20 g) (Taconic) were separated into groups of 8. After 5-7 days of recuperation, the mice were fed a chow diet or an atherogenic diet (15.75% fat, 1.25% cholesterol and 0.5% sodium cholate) (Purina diet #21539). EE or test compound was administered once daily by gavage in a methylcellulose/tween vehicle (0.1 ml per mouse) for 5 weeks. At the end of the experimental period, the liver was collected and uterine wet weight was recorded.
Liver total RNA was prepared by using Trizol reagent (BRL). Estrogen and compound regulation of NF-κB target genes were verified by real time RT-PCR using an ABI PRISM 7700 Sequence Detection System according to the manufacturer's protocol (Applied Biosystems). The data was analyzed using the Sequence Detector v1.7 software (Applied Biosystems) and normalized to GAPDH using the Applied Biosystems primer set.
To determine the ability of estrogens to regulate the development of diet-induced inflammation in the liver, gene expression changes resulting from the atherogenic diet were monitored. Ovariectomized C57BL/6 mice were fed either a chow or atherogenic diet and treated daily with EE (0.01 mg/kg) or test compound (10 mg/kg) (Table 3).

[4] = Ad5-wt-ER infected HAECT-1 cells
[5] = Homo sapiens, HAECT1, Ad5-wt-ER infected HAECT-1 cells

Row | Structure (SMILES) | IC50 (creatine kinase) | CK Efficacy (creatine kinase) | IL-6 Efficacy (IL-6; [4]) | IC50 (IL-6; [5]) | IC50 (NF-κB [1]; [5]) | Emax (NF-κB [1]; [5]) | other results
1 | COc1ccccc1C(c1cccc2ccccc12)C(C)(C#N)C#N (stereo not drawn) [Ex. 7, 2-[(2-Methoxyphenyl)(1-naphthyl)methyl]-2-methylmalononitrile] | 30.7 nM | 28% | 144% | 24 nM | 9.9 nM | 98% | Uterine Wet Weight Increase, Efficacy (uterine wet weight): 18%; Uterine Wet Weight Increase, Fold Increase (uterine wet weight): 2.2; melting point: 175 to 177 °C; IC50 (NF-κB [1]; [4]): 17.5 nM; NF-κB IC50 (NF-κB [2]): inactive
2 | COc1ccc(C(c2cccc3ccccc23)C(C#N)C#N)cc1 (stereo not drawn) [Ex. 6, 2-[(4-Methoxyphenyl)(1-naphthyl)methyl]malononitrile] |  |  |  |  | 1640 nM | 137% | 
3 | COc1ccccc1C(c1cccc2ccccc12)C(C#N)C#N (stereo not drawn) [Ex. 1, 2-[(2-Methoxyphenyl)(1-naphthyl)methyl]malononitrile] | 8.7 nM | 27% | 118% | 1220 nM |  |  | NF-κB IC50 (NF-κB [2]): inactive
4 | C#C[C@]1(O)CC[C@H]2[C@@H]3CCc4cc(O)ccc4[C@H]3CC[C@@]21C [EE, 17α-ethinyl-17β-estradiol, reference compound] |  |  |  |  |  |  | Uterine Wet Weight Increase, Efficacy (uterine wet weight): 100%; Uterine Wet Weight Increase, Fold Increase (uterine wet weight): 5.0; Atherogenic diet induction of mRNA for MHC invariant chain, VCAM-1, RANTES and TNF-α in liver [3]: strongly suppressed
5 | Cc1ccccc1C(c1cccc2ccccc12)C(C#N)C#N (stereo not drawn) [Ex. 4, 2-[(2-Methylphenyl)(1-naphthyl)methyl]malononitrile] |  |  | 127% | 1010 nM |  |  | 
6 | COc1cccc(C(c2cccc3ccccc23)C(C#N)C#N)c1 (stereo not drawn) [Ex. 3, 2-[(3-Methoxyphenyl)(1-naphthyl)methyl]malononitrile] |  |  | 92% | 1040 nM | 853 nM | 138% | 
7 | N#CC(C#N)C(c1cccc2ccccc12)c1cccc2ccccc12 [Ex. 8, 2-[Di(1-naphthyl)methyl]malononitrile] |  |  | 152% | 560 nM | 768 nM | 176% | melting point: 179 to 181 °C; IC50 (NF-κB [1]; [4]): 581 nM
8 | C[C@]12CC[C@@H]3c4ccc(O)cc4CC[C@H]3[C@@H]1CC[C@@H]2O [Example E2, 17β-estradiol, reference compound] | 5.8 nM | 100% | 100% |  |  |  | IC50 (IL-6; [4]): 1.7 nM
9 | Cc1ccc(C(c2cccc3ccccc23)C(C#N)C#N)cc1 (stereo not drawn) [Ex. 5, 2-[(4-Methylphenyl)(1-naphthyl)methyl]malononitrile] |  |  |  |  | 1660 nM | 154% | 
